Literature values in patent publication US20050065129A1, “2-Alkylidene-19-nor-vitamin D derivatives for the treatment of frailty, muscle damage or sarcopenia” (Pfizer Inc, priority 2003, published 2005).

Columns and labels:
[1] = test system: Intestinal Calcium Transport; details: chronic 7 days, 130 and/or 260 pmol/day, rats
[2] = test system: Serum Calcium (Bone Calcium Mobilization); details: chronic 7 days, rats; for bone calcium mobilization activity (in words): 130 and 260 pmol/day

| SMILES | intestinal calcium transport activity (in words) [1] | bone calcium mobilization activity (in words) [2] | bone calcium mobilization (serum calcium) activity relative to 1,25-(OH)2D3 (native hormone) ([2]; estimate) |
| --- | --- | --- | --- |
| C=C1[C@H](O)CC(=C/C=C2\CCC[C@]3(C)[C@@H]([C@@H](C)CCCC(C)(C)O)CC[C@@H]23)C[C@H]1O [2-Methylene-19-Nor-20S-1,25-(OH)2D3, (20S)-1α,25-dihydroxy-2-methylene-19-nor-vitamin D3] | no significant change | most potent compound tested | – |
| C=C1/C(=C\C=C2/CCC[C@]3(C)[C@@H]([C@H](C)CCCC(C)(C)O)CC[C@@H]23)C[C@@H](O)C[C@@H]1O [1,25-(OH)2D3, 1,25-dihydroxyvitamin D3, reference compound] | expected elevation | – | – |
| C=C1[C@H](O)CC(=C/C=C2\CCC[C@]3(C)[C@@H]([C@H](C)CCCC(C)(C)O)CC[C@@H]23)C[C@H]1O [2-Methylene-19-Nor-1,25-(OH)2D3, 1α,25-dihydroxy-2-methylene-19-nor-vitamin D3] | no intestinal calcium transport activity | extremely strong bone calcium mobilization | 10-100 times |
